Data published in ChEMBL document CHEMBL3991601, “The target landscape of clinical kinase drugs” (Science, 2017).
Activity calls are given as the source filed them.

How the values were obtained:
[1] = biological target: Ribosomal protein S6 kinase alpha-5 (Homo sapiens, UniProt O75582)
[2] = biological target: T1, RNA cytidine acetyltransferase (Homo sapiens, UniProt Q9H0A0)
T1 sequence (Q9H0A0 whole entry): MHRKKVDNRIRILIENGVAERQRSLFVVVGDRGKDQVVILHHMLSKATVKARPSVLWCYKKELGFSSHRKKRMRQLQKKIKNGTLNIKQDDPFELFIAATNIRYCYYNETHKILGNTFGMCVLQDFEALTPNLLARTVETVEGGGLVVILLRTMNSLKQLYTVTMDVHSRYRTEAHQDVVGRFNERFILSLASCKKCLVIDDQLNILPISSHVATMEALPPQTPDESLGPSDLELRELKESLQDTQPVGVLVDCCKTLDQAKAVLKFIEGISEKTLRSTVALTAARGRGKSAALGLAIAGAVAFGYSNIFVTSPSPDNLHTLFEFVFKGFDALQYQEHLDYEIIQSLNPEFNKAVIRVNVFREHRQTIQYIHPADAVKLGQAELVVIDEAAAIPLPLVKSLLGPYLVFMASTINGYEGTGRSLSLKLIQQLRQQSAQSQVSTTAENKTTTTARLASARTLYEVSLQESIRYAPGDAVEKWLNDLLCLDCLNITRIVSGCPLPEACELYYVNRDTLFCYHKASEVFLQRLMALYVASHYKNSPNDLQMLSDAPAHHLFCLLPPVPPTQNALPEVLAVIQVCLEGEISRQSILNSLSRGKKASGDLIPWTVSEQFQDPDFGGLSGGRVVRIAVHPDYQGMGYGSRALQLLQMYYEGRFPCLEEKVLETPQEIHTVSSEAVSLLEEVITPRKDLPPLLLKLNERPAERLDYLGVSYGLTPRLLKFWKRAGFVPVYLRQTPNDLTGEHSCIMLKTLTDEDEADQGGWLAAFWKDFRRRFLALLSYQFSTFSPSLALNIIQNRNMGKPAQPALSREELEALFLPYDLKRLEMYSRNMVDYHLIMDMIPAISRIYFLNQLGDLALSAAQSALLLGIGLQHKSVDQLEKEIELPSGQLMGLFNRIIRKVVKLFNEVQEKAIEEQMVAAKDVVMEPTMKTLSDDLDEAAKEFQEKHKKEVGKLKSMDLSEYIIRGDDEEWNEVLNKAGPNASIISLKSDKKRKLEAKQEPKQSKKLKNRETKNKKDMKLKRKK

[3] = biological target: T2, Dual specificity mitogen-activated protein kinase kinase 3 (Homo sapiens, UniProt P46734)
T2 sequence (P46734 whole entry): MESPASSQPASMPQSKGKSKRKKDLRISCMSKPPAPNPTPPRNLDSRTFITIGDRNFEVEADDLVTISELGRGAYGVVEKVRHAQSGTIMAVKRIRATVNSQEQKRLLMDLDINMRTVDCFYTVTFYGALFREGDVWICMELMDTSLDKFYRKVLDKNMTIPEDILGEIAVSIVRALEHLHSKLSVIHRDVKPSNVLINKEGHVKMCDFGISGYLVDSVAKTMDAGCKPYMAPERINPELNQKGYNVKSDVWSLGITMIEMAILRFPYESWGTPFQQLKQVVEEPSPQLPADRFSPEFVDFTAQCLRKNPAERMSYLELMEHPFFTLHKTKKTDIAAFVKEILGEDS

[4] = biological target: Mitogen-activated protein kinase 7 (Homo sapiens, UniProt Q13164)
[5] = biological target: T3, Dual specificity mitogen-activated protein kinase kinase 6 (Homo sapiens, UniProt P52564)
T3 sequence (P52564 whole entry): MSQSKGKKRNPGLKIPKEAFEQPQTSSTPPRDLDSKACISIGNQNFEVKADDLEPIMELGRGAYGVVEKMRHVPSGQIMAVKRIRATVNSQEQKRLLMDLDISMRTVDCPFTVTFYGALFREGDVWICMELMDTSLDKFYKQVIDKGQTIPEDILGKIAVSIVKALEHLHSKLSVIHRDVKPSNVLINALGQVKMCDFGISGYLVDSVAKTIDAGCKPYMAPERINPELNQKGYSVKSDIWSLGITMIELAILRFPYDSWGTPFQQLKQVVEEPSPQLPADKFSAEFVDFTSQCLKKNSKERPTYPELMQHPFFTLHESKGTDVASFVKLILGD

Myosin-14 = Myosin-14 (Homo sapiens, UniProt Q7Z406)
Ephrin type-B receptor 4 = biological target: T4, Ephrin type-B receptor 4 (Homo sapiens, UniProt P54760)
T4 sequence (P54760 whole entry): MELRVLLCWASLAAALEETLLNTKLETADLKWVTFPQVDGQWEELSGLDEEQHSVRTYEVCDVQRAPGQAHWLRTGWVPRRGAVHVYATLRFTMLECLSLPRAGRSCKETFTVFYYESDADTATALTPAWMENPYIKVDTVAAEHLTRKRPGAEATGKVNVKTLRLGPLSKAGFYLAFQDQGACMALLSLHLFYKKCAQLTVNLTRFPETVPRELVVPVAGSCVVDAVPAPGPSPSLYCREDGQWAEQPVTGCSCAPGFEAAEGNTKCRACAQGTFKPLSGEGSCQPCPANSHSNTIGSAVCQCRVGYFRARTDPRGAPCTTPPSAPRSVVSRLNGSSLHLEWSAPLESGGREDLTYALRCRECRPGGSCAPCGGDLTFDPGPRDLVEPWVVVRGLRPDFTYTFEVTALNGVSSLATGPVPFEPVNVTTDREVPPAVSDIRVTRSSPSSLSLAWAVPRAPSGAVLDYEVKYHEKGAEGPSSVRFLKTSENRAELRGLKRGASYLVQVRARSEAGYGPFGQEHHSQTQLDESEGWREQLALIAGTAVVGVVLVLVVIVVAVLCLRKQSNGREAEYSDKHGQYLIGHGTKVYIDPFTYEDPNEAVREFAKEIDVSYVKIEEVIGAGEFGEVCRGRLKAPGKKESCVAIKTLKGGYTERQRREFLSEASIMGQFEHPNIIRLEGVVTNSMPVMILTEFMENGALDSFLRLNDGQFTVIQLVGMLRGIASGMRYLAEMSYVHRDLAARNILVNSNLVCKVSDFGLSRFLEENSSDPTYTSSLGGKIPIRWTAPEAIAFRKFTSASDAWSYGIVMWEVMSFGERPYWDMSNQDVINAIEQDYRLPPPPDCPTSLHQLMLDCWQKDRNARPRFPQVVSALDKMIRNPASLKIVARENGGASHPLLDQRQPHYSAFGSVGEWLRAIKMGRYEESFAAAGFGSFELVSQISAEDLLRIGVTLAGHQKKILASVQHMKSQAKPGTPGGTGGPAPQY
Further: in the data inactive means no Kd found up to 30 µM.

Sequence of Ribosomal protein S6 kinase alpha-5 (O75582 whole entry): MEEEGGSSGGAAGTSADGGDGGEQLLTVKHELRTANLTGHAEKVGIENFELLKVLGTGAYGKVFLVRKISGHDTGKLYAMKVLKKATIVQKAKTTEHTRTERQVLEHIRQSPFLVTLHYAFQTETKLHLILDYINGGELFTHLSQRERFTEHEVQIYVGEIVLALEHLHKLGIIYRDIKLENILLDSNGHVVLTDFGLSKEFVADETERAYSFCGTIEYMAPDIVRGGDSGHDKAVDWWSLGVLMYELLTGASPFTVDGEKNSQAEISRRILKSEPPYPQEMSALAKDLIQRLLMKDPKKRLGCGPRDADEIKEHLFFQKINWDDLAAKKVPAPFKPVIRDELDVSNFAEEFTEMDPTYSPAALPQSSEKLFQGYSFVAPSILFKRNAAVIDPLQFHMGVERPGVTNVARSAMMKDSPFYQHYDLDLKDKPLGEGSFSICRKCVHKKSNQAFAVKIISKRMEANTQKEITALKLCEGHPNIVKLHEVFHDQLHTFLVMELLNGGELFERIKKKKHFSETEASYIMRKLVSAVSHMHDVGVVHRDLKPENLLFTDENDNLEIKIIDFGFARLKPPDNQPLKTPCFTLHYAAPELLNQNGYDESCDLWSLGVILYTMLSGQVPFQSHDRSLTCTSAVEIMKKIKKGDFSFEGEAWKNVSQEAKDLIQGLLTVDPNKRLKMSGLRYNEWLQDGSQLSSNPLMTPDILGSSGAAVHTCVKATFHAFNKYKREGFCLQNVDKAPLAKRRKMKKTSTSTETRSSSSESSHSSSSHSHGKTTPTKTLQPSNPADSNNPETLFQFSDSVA
Sequence of Mitogen-activated protein kinase 7 (Q13164 whole entry): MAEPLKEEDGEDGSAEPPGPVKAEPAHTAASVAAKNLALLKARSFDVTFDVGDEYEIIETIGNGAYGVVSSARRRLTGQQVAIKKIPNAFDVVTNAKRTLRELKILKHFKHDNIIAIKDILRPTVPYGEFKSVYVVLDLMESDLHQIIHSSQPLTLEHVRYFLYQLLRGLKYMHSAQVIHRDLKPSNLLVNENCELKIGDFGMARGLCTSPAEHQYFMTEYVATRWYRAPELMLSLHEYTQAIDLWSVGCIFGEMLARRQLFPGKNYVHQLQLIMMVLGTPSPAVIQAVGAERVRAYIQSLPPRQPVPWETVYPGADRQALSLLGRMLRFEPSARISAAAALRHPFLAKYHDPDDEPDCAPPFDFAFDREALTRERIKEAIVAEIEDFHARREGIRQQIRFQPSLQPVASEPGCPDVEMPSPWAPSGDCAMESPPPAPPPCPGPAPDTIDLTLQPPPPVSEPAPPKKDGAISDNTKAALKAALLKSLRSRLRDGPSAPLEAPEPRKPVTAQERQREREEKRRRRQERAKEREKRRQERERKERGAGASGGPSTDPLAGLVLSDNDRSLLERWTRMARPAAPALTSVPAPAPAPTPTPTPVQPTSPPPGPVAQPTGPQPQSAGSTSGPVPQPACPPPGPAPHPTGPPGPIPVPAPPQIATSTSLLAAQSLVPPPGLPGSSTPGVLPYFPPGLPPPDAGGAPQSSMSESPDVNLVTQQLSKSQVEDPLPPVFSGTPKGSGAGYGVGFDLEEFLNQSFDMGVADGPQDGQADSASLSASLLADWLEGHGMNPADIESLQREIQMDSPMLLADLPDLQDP
Sequence of Myosin-14 (Q7Z406 whole entry): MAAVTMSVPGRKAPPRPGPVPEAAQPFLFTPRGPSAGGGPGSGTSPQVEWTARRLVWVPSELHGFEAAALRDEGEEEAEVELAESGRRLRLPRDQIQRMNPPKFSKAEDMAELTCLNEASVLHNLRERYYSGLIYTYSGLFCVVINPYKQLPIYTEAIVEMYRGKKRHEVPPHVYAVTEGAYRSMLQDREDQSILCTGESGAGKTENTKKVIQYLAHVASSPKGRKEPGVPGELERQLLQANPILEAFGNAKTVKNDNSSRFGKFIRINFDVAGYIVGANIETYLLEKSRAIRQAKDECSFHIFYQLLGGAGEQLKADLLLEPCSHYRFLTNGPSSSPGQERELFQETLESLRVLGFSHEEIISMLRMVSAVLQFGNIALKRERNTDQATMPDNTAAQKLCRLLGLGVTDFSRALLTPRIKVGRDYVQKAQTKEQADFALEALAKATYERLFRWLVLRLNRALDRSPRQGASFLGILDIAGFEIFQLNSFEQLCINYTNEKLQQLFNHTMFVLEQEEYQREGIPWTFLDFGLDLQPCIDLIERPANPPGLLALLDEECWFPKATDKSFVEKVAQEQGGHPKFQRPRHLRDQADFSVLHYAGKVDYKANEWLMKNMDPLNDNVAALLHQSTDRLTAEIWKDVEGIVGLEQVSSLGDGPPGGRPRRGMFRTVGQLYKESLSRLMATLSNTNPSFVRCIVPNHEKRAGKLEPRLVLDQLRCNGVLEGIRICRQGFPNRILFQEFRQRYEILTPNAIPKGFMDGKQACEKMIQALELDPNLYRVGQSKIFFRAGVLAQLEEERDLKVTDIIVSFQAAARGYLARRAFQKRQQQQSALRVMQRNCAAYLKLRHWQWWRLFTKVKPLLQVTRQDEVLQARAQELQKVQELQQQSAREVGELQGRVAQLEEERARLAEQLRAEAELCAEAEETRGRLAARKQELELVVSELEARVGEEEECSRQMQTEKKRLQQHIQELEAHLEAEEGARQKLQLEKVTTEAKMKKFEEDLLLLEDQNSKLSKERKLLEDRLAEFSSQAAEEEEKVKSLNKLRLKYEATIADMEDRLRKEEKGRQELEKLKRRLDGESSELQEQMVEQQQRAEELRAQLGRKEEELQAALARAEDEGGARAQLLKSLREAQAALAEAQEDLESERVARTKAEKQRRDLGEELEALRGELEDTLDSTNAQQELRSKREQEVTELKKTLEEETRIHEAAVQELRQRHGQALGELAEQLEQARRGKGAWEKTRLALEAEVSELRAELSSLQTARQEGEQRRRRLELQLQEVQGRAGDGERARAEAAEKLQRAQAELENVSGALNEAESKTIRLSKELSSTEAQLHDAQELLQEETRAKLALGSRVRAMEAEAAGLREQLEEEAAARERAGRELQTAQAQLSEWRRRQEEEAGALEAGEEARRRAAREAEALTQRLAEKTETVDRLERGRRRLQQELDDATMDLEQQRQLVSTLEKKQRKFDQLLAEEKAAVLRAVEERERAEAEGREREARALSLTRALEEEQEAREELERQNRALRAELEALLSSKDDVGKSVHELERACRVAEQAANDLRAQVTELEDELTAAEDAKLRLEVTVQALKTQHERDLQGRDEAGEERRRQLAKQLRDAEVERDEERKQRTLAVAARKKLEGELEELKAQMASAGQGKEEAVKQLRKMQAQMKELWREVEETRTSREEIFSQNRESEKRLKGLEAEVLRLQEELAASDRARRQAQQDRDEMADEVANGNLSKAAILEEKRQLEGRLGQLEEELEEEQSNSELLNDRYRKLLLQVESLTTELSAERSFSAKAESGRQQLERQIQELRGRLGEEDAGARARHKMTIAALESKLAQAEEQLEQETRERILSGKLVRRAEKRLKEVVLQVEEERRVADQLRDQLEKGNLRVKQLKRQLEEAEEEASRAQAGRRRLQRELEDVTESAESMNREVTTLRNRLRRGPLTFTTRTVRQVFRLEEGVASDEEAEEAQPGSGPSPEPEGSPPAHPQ

Structure (SMILES)	Kd [1]	Kd [2]	Kd [3]	Kd [4]	Kd [5]	Kd (Myosin-14)	Kd (Ephrin type-B receptor 4)
C[C@@H](Oc1cc(C(=O)Nc2ccc(C(=O)N3CCN(C)CC3)cc2)nnc1N)c1c(Cl)ccc(F)c1Cl	> 30 µM (inactive)	> 30 µM (inactive)	> 30 µM (inactive)	> 30 µM (inactive)	> 30 µM (inactive)	> 30 µM (inactive)	> 30 µM (inactive)
C[C@H]1CNCCCN1S(=O)(=O)c1cccc2cncc(F)c12	> 30 µM (inactive)	> 30 µM (inactive)	3.08 µM (active)	> 30 µM (inactive)	> 30 µM (inactive)	> 30 µM (inactive)	> 30 µM (inactive)
Nc1ncnc2c1c(-c1cccc(OCc3ccccc3)c1)cn2[C@H]1C[C@@H](CN2CCC2)C1 [AEW-541]	> 30 µM (inactive)	> 30 µM (inactive)	> 30 µM (inactive)	> 30 µM (inactive)	> 30 µM (inactive)	> 30 µM (inactive)	> 30 µM (inactive)
Cc1nc(NC(=O)N2CCC[C@H]2C(N)=O)sc1-c1ccnc(C(C)(C)C(F)(F)F)c1 [ALPELISIB]	> 30 µM (inactive)	> 30 µM (inactive)	> 30 µM (inactive)	> 30 µM (inactive)	> 30 µM (inactive)	> 30 µM (inactive)	> 30 µM (inactive)
Cc1csc(-c2nnc(Nc3ccc(Oc4ncccc4-c4ccnc(N)n4)cc3)c3ccccc23)c1 [AMG-900]	2.15 µM (active)	> 30 µM (inactive)	> 30 µM (inactive)	> 30 µM (inactive)	> 30 µM (inactive)	> 30 µM (inactive)	> 30 µM (inactive)
COc1cc([C@@H]2c3cc4c(cc3[C@H](O)[C@H]3COC(=O)[C@@H]23)OCO4)cc(OC)c1OC [AXL-1717]	> 30 µM (inactive)	> 30 µM (inactive)	> 30 µM (inactive)	> 30 µM (inactive)	> 30 µM (inactive)	> 30 µM (inactive)	> 30 µM (inactive)
NC(=O)Nc1cc(-c2cccc(F)c2)sc1C(=O)N[C@H]1CCCNC1 [AZD-7762]	> 30 µM (inactive)	> 30 µM (inactive)	> 30 µM (inactive)	> 30 µM (inactive)	> 30 µM (inactive)	> 30 µM (inactive)	> 30 µM (inactive)
Cc1cc(C(=O)NOCCO)c(Nc2ccc(I)cc2F)n(C)c1=O [AZD-8330]	> 30 µM (inactive)	> 30 µM (inactive)	> 30 µM (inactive)	> 30 µM (inactive)	> 30 µM (inactive)	> 30 µM (inactive)	> 30 µM (inactive)
Cn1cnc2c(F)c(Nc3ccc(Br)cc3F)c(C(=O)NOCCO)cc21 [BINIMETINIB]	> 30 µM (inactive)	> 30 µM (inactive)	> 30 µM (inactive)	> 30 µM (inactive)	> 30 µM (inactive)	> 30 µM (inactive)	> 30 µM (inactive)
CCn1c(C(=O)N(C2CC2)C2CC2)cc2c3c(ncn3C)c(Nc3cc(C)n(C)n3)nc21 [BMS-911543]	> 30 µM (inactive)	> 30 µM (inactive)	> 30 µM (inactive)	> 30 µM (inactive)	> 30 µM (inactive)	> 30 µM (inactive)	> 30 µM (inactive)
COc1cc2ncnc(Oc3cccc(NC(=O)Nc4cc(C(C)(C)C(F)(F)F)on4)c3)c2cc1OC [CEP-32496]	> 30 µM (inactive)	> 30 µM (inactive)	> 30 µM (inactive)	> 30 µM (inactive)	> 30 µM (inactive)	> 30 µM (inactive)	9.82 µM (active)
Cc1cc(Nc2ncc(Cl)c(Nc3ccccc3S(=O)(=O)C(C)C)n2)c(OC(C)C)cc1C1CCNCC1 [CERITINIB]	> 30 µM (inactive)	> 30 µM (inactive)	> 30 µM (inactive)	9.85 µM (active)	> 30 µM (inactive)	> 30 µM (inactive)	> 30 µM (inactive)
COc1c(OCCCN2CCOCC2)ccc2c1N=C(NC(=O)c1cnc(N)nc1)N1CCN=C21 [COPANLISIB]	> 30 µM (inactive)	> 30 µM (inactive)	> 30 µM (inactive)	> 30 µM (inactive)	> 30 µM (inactive)	> 30 µM (inactive)	> 30 µM (inactive)
COCC(=O)NC/C=C/c1ccc2ncnc(Nc3ccc(Oc4ccc(C)nc4)c(C)c3)c2c1 [CP-724714]	> 30 µM (inactive)	> 30 µM (inactive)	> 30 µM (inactive)	> 30 µM (inactive)	> 30 µM (inactive)	> 30 µM (inactive)	> 30 µM (inactive)
C#Cc1cccc(Nc2ncnc3cc(OC)c(OCCCCCCC(=O)NO)cc23)c1 [CUDC-101]	> 30 µM (inactive)	> 30 µM (inactive)	> 30 µM (inactive)	> 30 µM (inactive)	> 30 µM (inactive)	> 30 µM (inactive)	> 30 µM (inactive)
O=C(Nc1nc2cccc(-c3ccc(CN4CCS(=O)(=O)CC4)cc3)n2n1)C1CC1 [FILGOTINIB]	> 30 µM (inactive)	> 30 µM (inactive)	> 30 µM (inactive)	> 30 µM (inactive)	> 30 µM (inactive)	> 30 µM (inactive)	> 30 µM (inactive)
Cc1cccc(-c2nn3c(c2-c2ccnc4ccc(C(N)=O)cc24)CCC3)n1 [GALUNISERTIB]	> 30 µM (inactive)	> 30 µM (inactive)	> 30 µM (inactive)	> 30 µM (inactive)	> 30 µM (inactive)	> 30 µM (inactive)	> 30 µM (inactive)
CCn1cc(-c2ccnc3[nH]c(-c4cccc(CN(C)C)c4)cc23)c(-c2ccc(NC(=O)N(C)C)cc2)n1 [GSK-1070916]	> 30 µM (inactive)	> 30 µM (inactive)	> 30 µM (inactive)	> 30 µM (inactive)	> 30 µM (inactive)	> 30 µM (inactive)	> 30 µM (inactive)
